82 compounds from PubChem BioAssay AID602210 (Sanford-Burnham Center for Chemical Genomics, 2012) can be followed below.

The source made the active and inactive calls. No rule for the calls is given here. Some results are limits rather than exact numbers.

This experiment is described as follows: H9c2 cardiomyoblast viability modulators under 2-DG – cell-based, ATPlite luminescence, rat, set 2, myocardial damage modulator project, dose response (AID 602210). The settings on record: H9c2 rat cardiomyoblasts, 2-deoxyglucose-induced death, 2 h. A general note: ATP-based viability assays read luminescence as a measure of living cells.
As a reminder, the IC50 is the concentration that gives 50% inhibition. Consider `COc1cccc(Nc2nc(-c3sc(NC(=O)c4ccco4)nc3C)cs2)c1`, for which the IC50 was 9.04 µM.

Regarding `COc1ccccc1OCC(=O)N/N=C/c1cccc2cccnc12`, the IC50 was > 79 µM (inactive).

With `Cc1ccccc1C1c2[nH]c3ccccc3c2C[C@H]2C(=O)N(c3ccccc3C(=O)NCCCN3CCOCC3)C(=O)N12` (some centres not stated), the IC50 was 46 µM (inactive).

As for `COc1cc(NC(=O)c2ccco2)c(C(=O)OCC(=O)c2c[nH]c3ccccc23)cc1OC`, the IC50 was 6.43 µM.

Take `COc1cccc(-c2nn3c(-c4ccccn4)nnc3s2)c1`: the IC50 was 16.1 µM (inactive).

As to `CCOC(=O)c1ccc(NC(=O)c2nc[nH]c2C(=O)NCCCCCNC(=O)OC(C)(C)C)cc1`, the IC50 is 6.6 µM.

Turning to `COc1ccc(NC(=O)c2cc(-c3ccc(OC)c(OC)c3)nc3ccccc23)c(OC)c1`, the IC50 was > 79 µM (inactive).

`COc1cc(-c2cc(NC(C)=O)c3ncc(-c4ccc(F)cc4)n3c2)cc(OC)c1OC`: the IC50 is 8.78 µM.

Take `COc1ccc(CCNC(=O)C(=O)NCC2CCCN2S(=O)(=O)c2ccccc2)cc1OC` (configuration not stated): the IC50 was 15.4 µM (inactive).

As to `N#Cc1ccccc1S(=O)(=O)N1CCN(c2nc(-c3cccnc3)nc3ccccc23)CC1`, the IC50 is 8.75 µM.

Consider `COc1ccc(C(C(=O)NCc2ccccc2)N(Cc2ccco2)C(=O)c2snc(C(N)=O)c2N)cc1` (configuration not stated), for which the IC50 is 6.17 µM.

As to `COc1cc(-c2cc(C(=O)NCc3ccco3)c3ccccc3n2)cc(OC)c1OC`, the IC50 is 16.4 µM (inactive).

Consider `O=C(/C=C\c1cn(-c2ccccc2)nc1-c1ccc2c(c1)OCCO2)N1CCOCC1`, for which the IC50 was > 79 µM (inactive).

Take `N#Cc1c(-c2ccco2)cc(-c2ccccn2)nc1N`: the IC50 was 37.2 µM (inactive).

For the compound `COc1ccc2c(c1OC)C(=O)N1c3ccccc3C(=O)N(c3ccccc3)C21` (configuration not stated), the IC50 was 8.7 µM.

In the case of `Cc1nn(-c2ccccc2)nc1C(=O)Nc1cccc(C(=O)NC2CC2)c1`, the IC50 is 18.6 µM (inactive).

`CCn1c(O)c(/C=N/N=C/c2ccccc2)c2ccc(C3=NNC(=O)CC3)cc21`: the IC50 was 10.7 µM (inactive).

As to `O=C(CN1CCN(Cc2ccccc2)CC1)Nc1ccc([N+](=O)[O-])cc1C(=O)Nc1ccccc1F`, the IC50 is 24.6 µM (inactive).

`COc1ccc(COc2cc(-c3cccc(OC)c3)nc3ccc(NC(=O)c4cccnc4)cc23)cc1`: the IC50 is 3.51 µM.

Regarding `CSc1nc2ccc(S(=O)(=O)Nc3c(C)n(C)n(-c4ccccc4)c3=O)cc2s1`, the IC50 is 8.98 µM.

Consider `COc1cc(-c2cnc3c(NC=O)cc(-c4ccsc4)cn23)cc(OC)c1OC`, for which the IC50 was 6.13 µM.

As for `COc1cc(/C=C/C(=O)Nc2ccc3nc4n(c(=O)c3c2)CCCC4)cc(OC)c1OC`, the IC50 is 20.6 µM (inactive).

Take `CCOC(=O)C1=C(C)NC(C)=C(C(=O)OCC)C1C(=O)OCC(=O)NC(C)C`: the IC50 was 25.1 µM (inactive).

For the compound `CCOc1ccc2nc(NC(=O)CN3CCC(n4nnc5cc(F)ccc54)CC3)sc2c1`, the IC50 was 15.9 µM (inactive).

Turning to `NC(=O)COc1ccc2oc(=O)cc(-c3cc4ccccc4o3)c2c1`, the IC50 is 17.2 µM (inactive).

Consider `Cc1ccc(-c2nnc(NCc3nc4ccccc4[nH]3)c3ccccc23)cc1S(=O)(=O)N1CCOCC1`, for which the IC50 is 11.3 µM (inactive).

`COc1cc(CCNc2ccc3nnc(-c4ccccc4)n3n2)cc(OC)c1OC`: the IC50 was 30.6 µM (inactive).

Take `Cc1nc2ccccc2c2c(N)c3ccccc3n12`: the IC50 was 32.1 µM (inactive).

Take `COCCNC(=O)COC(=O)c1ccc(OCC(=O)Nc2ccccc2OC)c(OC)c1`: the IC50 is 22 µM (inactive).

As to `COc1ccccc1N1CCN(C(=O)c2ccc3nc(-c4ccco4)c(-c4ccco4)nc3c2)CC1`, the IC50 was 14 µM (inactive).

Take `CCOC(=O)C1CCN(C(=O)c2ccc3c(=O)n4nc(Nc5ccccc5OC)sc4nc3c2)CC1`: the IC50 is 15.9 µM (inactive).

In the case of `COCCN1Cc2cccc(C(=O)Nc3cccc(-c4nc5ccccc5[nH]4)c3)c2C1=O`, the IC50 is 3.71 µM.

Turning to `CCOC(=O)c1cccc(Nc2nc(-c3cccnc3)nc3ccccc23)c1`, the IC50 is > 79 µM (inactive).

In the case of `Nc1nonc1-n1nnc(C(=O)N/N=C/c2ccccn2)c1CNc1ccccc1`, the IC50 is 41.4 µM (inactive).

For `COc1ccc(OC)c(Nc2nc(N)c([N+](=O)[O-])c(N3CCOCC3)n2)c1`, the IC50 is 27.5 µM (inactive).

Regarding `Cc1ccc2cc3c(NC(=O)c4cccnc4)nn(C)c3nc2c1`, the IC50 is 18.5 µM (inactive).

Take `O=[N+]([O-])c1ccc(Nc2nc(N/N=C/c3cccc(F)c3)nc(N3CCCC3)n2)cc1`: the IC50 was 10.2 µM (inactive).

With `CC(C)=NNc1cnnc2ccc([N+](=O)[O-])cc12`, the IC50 is 13.4 µM (inactive).

As for `O=C(NCCc1ccccc1Cl)c1ccc2nc3ccccc3c(=O)n2c1`, the IC50 is 28.7 µM (inactive).

As to `COc1ccc(NC(=O)c2oc3ccc(S(=O)(=O)N4CCOCC4)cc3c2C)cc1`, the IC50 was 15.3 µM (inactive).

For `CCOC(=O)c1c(C)[nH]c(C)c1C(=O)COc1ncnc2cc([N+](=O)[O-])ccc12`, the IC50 was 19.8 µM (inactive).

For `CC1CN(c2nn3c(=O)c4ccccc4nc3c3ccccc23)CC(C)O1` (configuration not stated), the IC50 is > 79 µM (inactive).

Take `COc1cc(/C=N/NC(=O)c2cccnc2)ccc1OS(=O)(=O)c1cc(C)ccc1C`: the IC50 is 18.5 µM (inactive).

As to `CC(C)(C)C(=O)Nc1ccc(C(=O)N/N=C/c2ccccc2OC(=O)c2ccccc2)cc1`, the IC50 was > 79 µM (inactive).

In the case of `O=C(NCC(=O)N(Cc1ccccc1)C(C(=O)NC1CCCCC1)c1ccco1)c1ccco1` (configuration not stated), the IC50 was 24 µM (inactive).

On to `COc1cc(C(=O)N/N=C/c2ccc(OC(=O)c3ccccc3)c(OC)c2)ccc1O`, for which the IC50 is 14.8 µM (inactive).

As to `Cn1c(=O)[nH]c(=O)c2c1nc(N(CCO)Cc1ccccc1)n2CCCc1ccccc1`, the IC50 was > 79 µM (inactive).

Regarding `NC(=O)c1ccc(Nc2nnc(-c3ccc(O)cc3)c3ccccc23)cc1`, the IC50 was 34.2 µM (inactive).

In the case of `Cc1ccc(NC(=O)c2cc(-c3cccs3)nc3ccccc23)nc1`, the IC50 was > 79 µM (inactive).

`CC(C(=O)NC1CCCC1)N(C(=O)Cn1nnc(-c2ccc(F)cc2)n1)c1ccccc1F` (configuration not stated): the IC50 is 11.3 µM (inactive).

`COC(=O)c1cc(NC(=O)Nc2cc(OC)ccc2OC)cc(C(=O)OC)c1`: the IC50 is > 79 µM (inactive).

Consider `CC1(c2ccccc2)NC(=O)N(CC(=O)Nc2cccc(/C=C/c3ccccn3)c2)C1=O` (configuration not stated), for which the IC50 was 21.8 µM (inactive).

In the case of `COc1cc(/C=C/c2nc3ccccc3c(=O)n2-c2ccccc2O)ccc1O`, the IC50 was 27.5 µM (inactive).

As for `CCN(CC)S(=O)(=O)c1ccc(Nc2nc3ccccc3n3nnnc23)cc1`, the IC50 is 7.9 µM.

For the compound `COc1ccc(-c2cc(C(=O)NC(C)c3ccccn3)c3ccccc3n2)cc1OC` (configuration not stated), the IC50 is 13.4 µM (inactive).

With `CC(C)c1cc(N2CCN(C(=O)c3ccco3)CC2)n2c(nc3ccccc32)c1C#N`, the IC50 is 44.7 µM (inactive).

For the compound `Cc1ccc(-c2csc(N3CCC[C@@H]3C(=O)NCCn3c(-c4ccncc4)nc4ccccc43)n2)cc1`, the IC50 was 8.85 µM.

Regarding `COc1cc(Nc2nc3ccccc3n3nnnc23)cc(OC)c1OC`, the half-inhibitory concentration (IC50) was 8.82 µM.

For the compound `COC(=O)c1ccc2c(=O)[nH]c(COC(=O)c3[nH]c(C)c(C(C)=O)c3C)nc2c1`, the 50% inhibitory concentration (IC50) was 9.12 µM.

On to `COc1cc(OC)cc(C(=O)Nc2ccc(-c3nc4ccccc4o3)cc2)c1`, for which the IC50 was 13.7 µM (inactive).

Consider `Cc1cc(N)n(-c2nc(-c3cccnc3)nc3ccccc23)n1`, for which the IC50 is 26.1 µM (inactive).

Consider `CCOc1ccc2[nH]c(=O)c(CN(Cc3nnnn3Cc3ccco3)C3CCCCC3)cc2c1`, for which the IC50 is 9.18 µM.

On to `O=C(COC(=O)c1c2c(nc3ccccc13)/C(=C/c1cccc([N+](=O)[O-])c1)CCC2)NC1CCS(=O)(=O)C1` (configuration not stated), for which the IC50 is 12.9 µM (inactive).

Turning to `COc1ccc2cc3cc(C(=O)NCCc4ccc(OC)c(OC)c4)oc3nc2c1`, the IC50 is 10.4 µM (inactive).

For the compound `COc1cc(NC(=O)c2cc3c(C)nc4ccccc4c3o2)cc(OC)c1OC`, the IC50 is 11.2 µM (inactive).

On to `c1ccc(N2CCOCC2)c(Nc2nc3ccccc3n3cnnc23)c1`, for which the IC50 is 33.1 µM (inactive).

For `Cc1nn2c(-c3cccc(NC(=O)c4ccco4)c3)nnc2c2ccccc12`, the IC50 is 7.77 µM.

In the case of `COc1cccc(-c2cnc3c(NC=O)cc(-c4cccc(C(=O)N(C)C)c4)cn23)c1`, the IC50 was > 79 µM (inactive).

On to `CC(=O)c1cccc(-c2cnc3c(NC=O)cc(-c4ccc(F)cc4)cn23)c1`, for which the IC50 is > 79 µM (inactive).

For the compound `COc1cccc2cc(-c3cc(=O)oc4ccc(OCC(C)=O)cc34)oc12`, the IC50 is > 79 µM (inactive).

Take `CSc1nc2ncc3c(n2n1)CC1c2ccccc2CCN1C3=O` (configuration not stated): the IC50 was 51.3 µM (inactive).

On to `COc1ccc(-c2cc(C(=O)Nc3ccccc3N3CCOCC3)c3ccccc3n2)cc1OC`, for which the IC50 is 7.58 µM.

Turning to `COc1ccccc1OCC(=O)Nc1cccc(-c2nnc(-c3ccco3)o2)c1`, the IC50 is > 79 µM (inactive).

For the compound `COC(=O)c1cc2c(-c3ccccc3)cc3ccccn3c-2c1C(=O)OC`, the IC50 was 12.7 µM (inactive).

Regarding `CCOCCCNC(=O)CCC(=O)NNc1nc2ccccc2c2nc(-c3ccccc3)nn12`, the IC50 is 35.6 µM (inactive).

Consider `NC(=O)c1oc2ccccc2c1NC(=O)c1ccco1`, for which the IC50 is 32.2 µM (inactive).

`Cc1cc(NC(=O)c2cccs2)cc(-c2nc3ncccc3o2)c1O`: the IC50 is > 79 µM (inactive).

Regarding `C[C@H](CO)N1C[C@H](C)[C@@H](CN(C)S(=O)(=O)c2ccc(F)cc2)Oc2ccc(NC(=O)Nc3ccc4c(c3)OCO4)cc2C1=O`, the IC50 was 48.8 µM (inactive).

As for `CCOc1cccc(Nc2cc3n(c(=O)n2)CCc2cc(OC)c(OC)cc2-3)c1`, the IC50 is 28 µM (inactive).

As for `COC(=O)c1cc(OC)c(OC)cc1NC(=O)c1ccc(C)o1`, the IC50 is 23.4 µM (inactive).

`COc1cc(-c2cc(C(=O)N3CCN(c4ccccn4)CC3)c3ccccc3n2)cc(OC)c1OC`: the IC50 was 26.2 µM (inactive).

Turning to `COc1ccc(-c2cc(-c3nnc(COC(=O)C4CC4C)o3)c3ccccc3n2)cc1OC` (configuration not stated), the IC50 was 10.3 µM (inactive).
